These results are taken from patent publication US20240343722A1 (VIFOR (INTERNATIONAL) AG, priority 2021, published 2024).

This experiment has as its target T1, ferroportin (Fpn) (Mus musculus, UniProt Q9JHI9).
T1 construct: endogenous in cells; host or cells: J774 mouse macrophage cell line, induced with Fe(III)NTA
T1 sequence (Q9JHI9 1-570): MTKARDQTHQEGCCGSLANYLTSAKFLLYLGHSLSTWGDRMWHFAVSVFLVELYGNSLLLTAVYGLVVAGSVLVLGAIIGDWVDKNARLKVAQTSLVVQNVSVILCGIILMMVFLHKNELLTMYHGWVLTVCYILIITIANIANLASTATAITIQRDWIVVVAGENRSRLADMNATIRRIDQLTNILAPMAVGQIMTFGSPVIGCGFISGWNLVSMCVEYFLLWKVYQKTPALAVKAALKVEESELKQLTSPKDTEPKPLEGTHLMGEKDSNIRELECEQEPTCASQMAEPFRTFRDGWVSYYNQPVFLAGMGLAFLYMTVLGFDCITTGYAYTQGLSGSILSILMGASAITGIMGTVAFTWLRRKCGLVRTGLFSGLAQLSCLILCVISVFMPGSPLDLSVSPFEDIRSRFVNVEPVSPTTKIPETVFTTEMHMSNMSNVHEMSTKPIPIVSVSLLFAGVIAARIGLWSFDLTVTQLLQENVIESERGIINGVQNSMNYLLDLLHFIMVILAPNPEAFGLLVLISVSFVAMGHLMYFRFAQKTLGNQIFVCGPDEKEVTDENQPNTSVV
Nature of the experiment: Hepcidin Internalization Assay (J774). It is filed as cell-based. The note with it: Average (AVE) IC50 of multiple measurements; inhibition of TMR-hepcidin (25 nM) internalization into J774 cells. From the text:
This cellular assay allows quantification of the binding of hepcidin to ferroportin (Fpn) through microscopic detection of internalization of a fluorescently labeled hepcidin into J774 cells. […] Binding of hepcidin to Fpn triggers internalization and degradation of both hepcidin and Fpn. […] Therefore, microscopic detection of cell-associated TMR fluorescence is a measure of hepcidin binding to Fpn and internalization of hepcidin and Fpn. If TMR-hepcidin is prevented from binding to Fpn, cellular TMR fluorescence remains low (Durrenberger et al, 2013). The effect of small molecular weight Fpn inhibitor compounds in this assay was evaluated in vitro as described below. […] After removal of the paraformaldehyde solution, cells were washed 3 times with PBS leaving 100 μl per well and the plates were sealed with foil plate seal. TMR (530-550 nm excitation/575-625 nm emission/400 ms exposure time) and Hoechst 33342 (360-370 nm excitation/420-460 nm emission /10 ms exposure time) fluorescence images were acquired using a […] imager (Olympus) with a 20× high NA objective. […] The acquired image data was analysed with the […] analysis software. […] IC50 values were calculated with the Sum(Mean) raw data using “log(inhibitor) vs. response” curve fitting of Prism 5 software (GraphPad Software Inc., version 5.02). For each data set the fit of the “log(inhibitor) vs. response (three parameters)” model was compared to the fit of the “log(inhibitor) vs. response - Variable slope (four parameters)” model and the IC50 data of the preferred model was used.
With `COCCn1c(CCNCCc2nc(C(=O)NCc3ncccc3F)co2)nc2ccccc21` [Example 1, N-((3-fluoropyridin-2-yl)methyl)-2-(2-((2-(1-(2-methoxyethyl)-1 H-benzo[d]imidazol-2-yl)ethyl)amino)ethyl)oxazole-4-carboxamide], the IC50 – broadly, the concentration that inhibits the measured activity by half – stood at 4 nM. Then `CCCCn1c(CCNCCc2nc(C(=O)NCc3ncccc3F)co2)nc2ccccc21` [Example 2, 2-(2-((2-(1-butyl-1 H-benzo[d]imidazol-2-yl)ethyl)amino)ethyl)-N-((3-fluoropyridin-2-yl)methyl)oxazole-4-carboxamide], with 1 nM; and `O=C(NCc1ncccc1F)c1coc(CCNCCc2nc3ccccc3n2Cc2ccccn2)n1` [Example 3, N-((3-fluoropyridin-2-yl)methyl)-2-(2-((2-(1-(pyridin-2-ylmethyl)-1H-benzo[d]imidazol-2-yl)ethyl)amino)ethyl)oxazole-4-carboxamide], with 2 nM. Then `Cn1c(CCNCCc2nc(C(=O)NCc3ncccc3F)co2)nc2ccccc21` [Example 5, N-((3-fluoropyridin-2-yl)methyl)-2-(2-((2-(1-methyl-1 H-benzo[d]imidazol-2-yl)ethyl)amino)ethyl)oxazole-4-carboxamide], with 7 nM. Then `CCn1c(CCNCCc2nc(C(=O)NCc3ncccc3F)co2)nc2ccccc21` [Example 6, 2-(2-((2-(1-ethyl-1 H-benzo[d]imidazol-2-yl)ethyl)amino)ethyl)-N-((3-fluoropyridin-2-yl)methyl)oxazole-4-carboxamide], with 3.6 nM.

Consider `CC(C)Cn1c(CCNCCc2nc(C(=O)NCc3ncccc3F)co2)nc2ccccc21` [Example 8, N-((3-fluoropyridin-2-yl)methyl)-2-(2-((2-(1-isobutyl-1 H-benzo[d]imidazol-2-yl)ethyl)amino)ethyl)oxazole-4-carboxamide], for which the IC50 was 1.2 nM. Under `CCCCn1c(CCNCCc2nc(C(=O)NCc3ncccc3Cl)co2)nc2ccccc21` [Example 9, 2-(2-((2-(1-butyl-1 H-benzo[d]imidazol-2-yl)ethyl)amino)ethyl)-N-((3-chloropyridin-2-yl)methyl)oxazole-4-carboxamide] stands 1 nM. Under `CCCCn1c(CCNCCc2nc(C(=O)NCc3ccccn3)co2)nc2ccccc21` [Example 11, 2-(2-((2-(1-butyl-1 H-benzo[d]imidazol-2-yl)ethyl)amino)ethyl)-N-(pyridin-2-ylmethyl)oxazole-4-carboxamide] stands 2 nM; under `O=C(O)Cn1c(CCNCCc2nc(C(=O)NCc3ncccc3F)co2)nc2ccccc21` [Example 14, 2-(2-(2-((2-(4-(((3-fluoropyridin-2-yl)methyl)carbamoyl)oxazol-2-yl)ethyl)amino)ethyl)-1H-benzo[d]imidazol-1-yl)acetic acid], 126 nM; under `CNC(=O)Cn1c(CCNCCc2nc(C(=O)NCc3ncccc3F)co2)nc2ccccc21` [Example 15, N-((3-fluoropyridin-2-yl)methyl)-2-(2-((2-(1-(2-(methylamino)-2-oxoethyl)-1 H-benzo[d]imidazol-2-yl)ethyl)amino)ethyl)oxazole-4-carboxamide], 32 nM. Under `NC(=O)Cn1c(CCNCCc2nc(C(=O)NCc3ncccc3F)co2)nc2ccccc21` [Example 16, 2-(2-((2-(1-(2-amino-2-oxoethyl)-1H-benzo[d]imidazol-2-yl)ethyl)amino)ethyl)-N-((3-fluoropyridin-2-yl)methyl)oxazole-4-carboxamide] stands 181 nM. In turn, `O=C(NCc1ncccc1F)c1coc(CCNCCc2nc3ccccc3n2Cc2ccccc2)n1` [Example 17, 2-(2-((2-(1-benzyl-1 H-benzo[d]imidazol-2-yl)ethyl)amino)ethyl)-N-((3-fluoropyridin-2-yl)methyl)oxazole-4-carboxamide] came in with an IC50 of 0.8 nM. `O=C(NCc1ncccc1F)c1coc(CCNCCc2nc3ccccc3n2CCC2CC2)n1` [Example 21, 2-(2-((2-(1-(2-cyclopropylethyl)-1 H-benzo[d]imidazol-2-yl)ethyl)amino)ethyl)-N-((3-fluoropyridin-2-yl)methyl)oxazole-4-carboxamide] had a 50% inhibitory concentration (IC50) of 1 nM.

Consider `O=C(NCc1ncccc1F)c1coc(CCNCCc2nc3ccccc3n2CCc2ccccc2)n1` [Example 23, N-((3-fluoropyridin-2-yl)methyl)-2-(2-((2-(1-phenethyl-1 H-benzo[d]imidazol-2-yl)ethyl)amino)ethyl)oxazole-4-carboxamide], for which the IC50 was determined as 1.9 nM. Compared with the last compound, the IC50 is about 1.9-fold higher. Under `CNC(=O)CCn1c(CCNCCc2nc(C(=O)NCc3ncccc3F)co2)nc2ccccc21` [Example 25, N-((3-fluoropyridin-2-yl)methyl)-2-(2-((2-(1-(3-(methylamino)-3-oxopropyl)-1 H-benzo[d]imidazol-2-yl)ethyl)amino)ethyl)oxazole-4-carboxamide] stands 7 nM; under `Cc1noc(C)c1CCn1c(CCNCCc2nc(C(=O)NCc3ncccc3F)co2)nc2ccccc21` [Example 30, 2-(2-((2-(1-(2-(3,5-dimethylisoxazol-4-yl)ethyl)-1 H-benzo[d]imidazol-2-yl)ethyl)amino)ethyl)-N-((3-fluoropyridin-2-yl)methyl)oxazole-4-carboxamide], 1.3 nM; under `O=C(NCc1ncccc1F)c1coc(CCNCCc2nc3ccccc3n2CCc2ncco2)n1` [Example 31, N-((3-fluoropyridin-2-yl)methyl)-2-(2-((2-(1-(2-(oxazol-2-yl)ethyl)-1 H-benzo[d]imidazol-2-yl)ethyl)amino)ethyl)oxazole-4-carboxamide], 2.8 nM. Under `Cn1ccnc1CCn1c(CCNCCc2nc(C(=O)NCc3ncccc3F)co2)nc2ccccc21` [Example 34, N-((3-fluoropyridin-2-yl)methyl)-2-(2-((2-(1-(2-(1-methyl-1 H-imidazol-2-yl)ethyl)-1 H-benzo[d]imidazol-2-yl)ethyl)amino)ethyl)oxazole-4-carboxamide] stands 7.4 nM; under `O=C(NCc1ncccc1F)c1coc(CCNCCc2nc3ccccc3n2CCc2ccccn2)n1` [Example 35, N-((3-fluoropyridin-2-yl)methyl)-2-(2-((2-(1-(2-(pyridin-2-yl)ethyl)-1H-benzo[d]imidazol-2-yl)ethyl)amino)ethyl)oxazole-4-carboxamide], 2 nM; under `CCCCn1c(CCNCCc2nc(C(=O)NCc3ncccc3F)co2)nc2cc3c(cc21)OCCO3` [Example 37, 2-(2-((2-(1-butyl-6,7-dihydro-1H-[1,4]dioxino[2′,3′:4,5]benzo[1,2-d]imidazol-2-yl)ethyl)amino)ethyl)-N-((3-fluoropyridin-2-yl)methyl)oxazole-4-carboxamide], 0.9 nM. `CCCCn1c(CCNCCc2nc(C(=O)NCc3ncccc3F)co2)nc2cc(-c3ccccc3OC)ccc21` [Example 39, 2-(2-((2-(1-butyl-5-(2-methoxyphenyl)-1 H-benzo[d]imidazol-2-yl)ethyl)amino)ethyl)-N-((3-fluoropyridin-2-yl)methyl)oxazole-4-carboxamide] gave an IC50 of 1.7 nM. This IC50 is about 1.9-fold higher than that of the compound before.

Consider `CCCCn1c(CCNCCc2nc(C(=O)NCc3ncccc3F)co2)nc2ccc(-c3ccccc3OC)cc21` [Example 40, 2-(2-((2-(1-butyl-6-(2-methoxyphenyl)-1 H-benzo[d]imidazol-2-yl)ethyl)amino)ethyl)-N-((3-fluoropyridin-2-yl)methyl)oxazole-4-carboxamide], for which the IC50 was 1.8 nM.
